Experimental data as given in patent US20250313579A1, “LIGAND COMPOUNDS COMPRISING A CHELATING GROUP AS A BRIDGING GROUP” (Technische Universität München, priority 2021, published 2025).

assay: Octanol-water distribution coefficient (LogDpH=7.4); format: physicochemical; conditions: n-octanol/PBS pH 7.4; radioactive ligand
Description: This distribution coefficient may be determined by measuring the equilibrium distribution, e.g. at room temperature (20° C.o) of a compound in accordance with the invention in a two-phase system containing equal amounts, such as 1.00 ml each, of n-octanol and PBS (pH=7.4), and calculating the logD7.4 value as log 10 (concentration in octanol/concentration in PBS). Instead of the (absolute) concentration of the compound in accordance with the invention in the octanol and the PBS, a parameter which is proportional to the concentration of the compound in each phase may also be used for the calculation, such as the activity of radiation if the compound comprises a radioactive moiety, e.g. a radioactive chelate.
The radioactive ligand of interest (0.7-1.0 MBq) is given to a mixture of n-octanol and PBS (1 ml, 1/1; v/V) in a 1.5 ml reaction tube and shaken vigorously for 3 min. The resulting mixture is centrifuged (9000 rpm, 5 min, RT), and 100 μl of the octanol and PBS phases isolated separately.
Quantification occurs by the determination of the activity of each isolated probe in a γ-counter. The LogDpH=7.4 value is determined by the following equation:
The determination of the final LogDpH=7.4 value is executed in octets. The mean value and standard deviation are determined after the removal of outlying values.

| SMILES | LogDpH=7.4 |
| --- | --- |
| C[C@@H](O)[C@H](NC(=O)[C@@H]1CSSC[C@H](NC(=O)[C@@H](Cc2ccccc2)NC(=O)CN2CCN(CC(=O)O)CCN(CC(=O)NCCCC[C@@H](NC(=O)[C@@H](CNC(=O)C[N+](C)(C)Cc3ccc([Si](F)(C(C)(C)C)C(C)(C)C)cc3)NC(=O)[C@@H](CN)NC(=O)[C@@H](CCC(=O)O)NC(=O)[C@H](N)CCC(=O)O)C(=O)O)CCN(CC(=O)O)CC2)C(=O)N[C@@H](Cc2ccc(O)cc2)C(=O)N[C@H](Cc2c[nH]c3ccccc23)C(=O)N[C@@H](CCCCN)C(=O)N[C@@H]([C@@H](C)O)C(=O)N1)C(=O)O [Compound 05, H-D-Glu-D-Glu-D-Dap-D-Dap(N-SiFAlin-N,N-Mez-Gly)-D-Lys(trans-DOTA-TATE)-OH] | −1.96 ± 0.06 |
| C[C@@H](O)[C@H](NC(=O)[C@@H]1CSSC[C@H](NC(=O)[C@@H](Cc2ccccc2)NC(=O)CN2CCN(CC(=O)O)CCN(CC(=O)NCCCC[C@@H](NC(=O)[C@@H](CNC(=O)C[N+](C)(C)Cc3ccc([Si](F)(C(C)(C)C)C(C)(C)C)cc3)NC(=O)[C@@H](CCCCN)NC(=O)[C@@H](CCC(=O)O)NC(=O)[C@H](N)CCC(=O)O)C(=O)O)CCN(CC(=O)O)CC2)C(=O)N[C@@H](Cc2ccc(O)cc2)C(=O)N[C@H](Cc2c[nH]c3ccccc23)C(=O)N[C@@H](CCCCN)C(=O)N[C@@H]([C@@H](C)O)C(=O)N1)C(=O)O [Compound 06, H-D-Glu-D-Glu-D-Lys-D-Dap(N-SiFAlin-N,N-Mez-Gly)-D-Lys(trans-DOTA-TATE)-OH] | −2.36 ± 0.03 |
| C[C@@H](O)[C@H](NC(=O)[C@@H]1CSSC[C@H](NC(=O)[C@@H](Cc2ccccc2)NC(=O)CN2CCN(CC(=O)O)CCN(CC(=O)NCCCC[C@@H](NC(=O)C[N+](C)(C)Cc3ccc([Si](F)(C(C)(C)C)C(C)(C)C)cc3)C(=O)O)CCN(CC(=O)O)CC2)C(=O)N[C@@H](Cc2ccc(O)cc2)C(=O)N[C@H](Cc2c[nH]c3ccccc23)C(=O)N[C@@H](CCCCN)C(=O)N[C@@H]([C@@H](C)O)C(=O)N1)C(=O)O [[Ga]01, N-SiFAlin-N,N-Me2-Gly-D-Lys(trans-[^natGa] DOTA-TATE)-OH, metal not drawn] | −1.19 ± 0.07 |
| C[C@@H](O)[C@H](NC(=O)[C@@H]1CSSC[C@H](NC(=O)[C@@H](Cc2ccccc2)NC(=O)CN2CCN3CCN(CC(=O)NC[C@@H](NC(=O)C[N+](C)(C)Cc4ccc([Si](F)(C(C)(C)C)C(C)(C)C)cc4)C(=O)O)CCN(CC2)CC(=O)[O][Ga+][O]C(=O)C3)C(=O)N[C@@H](Cc2ccc(O)cc2)C(=O)N[C@H](Cc2c[nH]c3ccccc23)C(=O)N[C@@H](CCCCN)C(=O)N[C@@H]([C@@H](C)O)C(=O)N1)C(=O)O [[Ga]02, N-SiFAlin-N, N-Me2-Gly-D-Dap(trans-[^natGa] DOTA-TATE)-OH] | −1.03 ± 0.04 |
| C[C@@H](O)[C@H](NC(=O)[C@@H]1CSSC[C@H](NC(=O)[C@@H](Cc2ccccc2)NC(=O)CN2CCN(CC(=O)O)CCN(CC(=O)NCCCC[C@@H](NC(=O)[C@@H](CNC(=O)C[N+](C)(C)Cc3ccc([Si](F)(C(C)(C)C)C(C)(C)C)cc3)NC(=O)[C@@H](CCCNC(N)=O)NC(=O)[C@@H](CCCNC(N)=O)NC(=O)[C@H](N)CCCNC(N)=O)C(=O)O)CCN(CC(=O)O)CC2)C(=O)N[C@@H](Cc2ccc(O)cc2)C(=O)N[C@H](Cc2c[nH]c3ccccc23)C(=O)N[C@@H](CCCCN)C(=O)N[C@@H]([C@@H](C)O)C(=O)N1)C(=O)O [[Ga]03, H-D -Cit-D -Cit-D -Cit-D-Dap(N-SiFAlin-N,N-Me2-Gly)-D-Lys(trans-[na′Ga] DOTA-TATE)-OH] | −2.27 ± 0.04 |
| C[C@@H](O)[C@H](NC(=O)[C@@H]1CSSC[C@H](NC(=O)[C@@H](Cc2ccccc2)NC(=O)CN2CCN(CC(=O)O)CCN(CC(=O)NCCCC[C@@H](NC(=O)[C@@H](CNC(=O)C[N+](C)(C)Cc3ccc([Si](F)(C(C)(C)C)C(C)(C)C)cc3)NC(=O)[C@@H](CCCNC(N)=O)NC(=O)[C@@H](CCCNC(N)=O)NC(=O)[C@H](N)CCC(=O)O)C(=O)O)CCN(CC(=O)O)CC2)C(=O)N[C@@H](Cc2ccc(O)cc2)C(=O)N[C@H](Cc2c[nH]c3ccccc23)C(=O)N[C@@H](CCCCN)C(=O)N[C@@H]([C@@H](C)O)C(=O)N1)C(=O)O [[Ga]04, H-D-Glu-D -Cit-D -Cit-D-Dap(N-SiFAlin-N,N-Mez-Gly)-D-Lys(trans-[^natGa] DOTA-TATE)-OH, metal not drawn] | −2.30 ± 0.03 |
| C[C@@H](O)[C@H](NC(=O)[C@@H]1CSSC[C@H](NC(=O)[C@@H](Cc2ccccc2)NC(=O)CN2CCN3CCN(CC(=O)NCCCC[C@@H](NC(=O)[C@@H](CNC(=O)C[N+](C)(C)Cc4ccc([Si](F)(C(C)(C)C)C(C)(C)C)cc4)NC(=O)[C@@H](CN)NC(=O)[C@@H](CCC(=O)O)NC(=O)[C@H](N)CCC(=O)O)C(=O)O)CCN(CC2)CC(=O)[O][Ga+][O]C(=O)C3)C(=O)N[C@@H](Cc2ccc(O)cc2)C(=O)N[C@H](Cc2c[nH]c3ccccc23)C(=O)N[C@@H](CCCCN)C(=O)N[C@@H]([C@@H](C)O)C(=O)N1)C(=O)O [[Ga]05, H-D-Glu-D-Glu-D-Dap-D-Dap(N-SiFAlin-N,N-Me2-Gly)-D-Lys(trans-[^natGa] DOTA-TATE)-OH] | −2.12 ± 0.06 |
| C[C@@H](O)[C@H](NC(=O)[C@@H]1CSSC[C@H](NC(=O)[C@@H](Cc2ccccc2)NC(=O)CN2CCN3CCN(CC(=O)NCCCC[C@@H](NC(=O)[C@@H](CNC(=O)C[N+](C)(C)Cc4ccc([Si](F)(C(C)(C)C)C(C)(C)C)cc4)NC(=O)[C@@H](CCCCN)NC(=O)[C@@H](CCC(=O)O)NC(=O)[C@H](N)CCC(=O)O)C(=O)O)CCN(CC2)CC(=O)[O][Ga+][O]C(=O)C3)C(=O)N[C@@H](Cc2ccc(O)cc2)C(=O)N[C@H](Cc2c[nH]c3ccccc23)C(=O)N[C@@H](CCCCN)C(=O)N[C@@H]([C@@H](C)O)C(=O)N1)C(=O)O [[Ga]06, H-D-Glu-D-Glu-D-Lys-D-Dap(N-SiFAlin-N, N-Me2-Gly)-D-Lys(trans-[^natGa] DOTA-TATE)-OH] | −2.28 ± 0.04 |
| C[C@@H](O)[C@H](NC(=O)[C@@H]1CSSC[C@H](NC(=O)[C@@H](Cc2ccccc2)NC(=O)CN2CCN3CCN(CC(=O)NCCCC[C@@H](NC(=O)[C@@H](CNC(=O)C[N+](C)(C)Cc4ccc([Si](F)(C(C)(C)C)C(C)(C)C)cc4)NC(=O)[C@@H](CCC(=O)O)NC(=O)[C@@H](CCC(=O)O)NC(=O)[C@H](N)CCC(=O)O)C(=O)O)CCN(CC2)CC(=O)[O][Ga+][O]C(=O)C3)C(=O)N[C@@H](Cc2ccc(O)cc2)C(=O)N[C@H](Cc2c[nH]c3ccccc23)C(=O)N[C@@H](CCCCN)C(=O)N[C@@H]([C@@H](C)O)C(=O)N1)C(=O)O [[Ga]07, H-D-Glu-D-Glu-D-Glu-D-Dap(N-SiFAlin-N,N-Me2-Gly)-D-Lys(trans-[^natGa] DOTA-TATE)-OH] | −2.30 ± 0.04 |
| C[C@@H](O)[C@H](NC(=O)[C@@H]1CSSC[C@H](NC(=O)[C@@H](Cc2ccccc2)NC(=O)CN2CCN3CCN(CC(=O)NCCCC[C@@H](NC(=O)[C@@H](CCC(=O)O)NC(=O)[C@@H](CNC(=O)C[N+](C)(C)Cc4ccc([Si](F)(C(C)(C)C)C(C)(C)C)cc4)NC(=O)[C@@H](CCC(=O)O)NC(=O)[C@@H](CCC(=O)O)NC(=O)[C@H](N)CCC(=O)O)C(=O)O)CCN(CC2)CC(=O)[O][Ga+][O]C(=O)C3)C(=O)N[C@@H](Cc2ccc(O)cc2)C(=O)N[C@H](Cc2c[nH]c3ccccc23)C(=O)N[C@@H](CCCCN)C(=O)N[C@@H]([C@@H](C)O)C(=O)N1)C(=O)O [[Ga]08, H-D-Glu-D-Glu-D-Glu-D-Dap(N-SiFAlin-N,N-Me2-Gly)-D-Glu-D-Lys(trans-[^natGa] DOTA-TATE)-OH] | −2.07 ± 0.04 |
| C[C@@H](O)[C@H](NC(=O)[C@@H]1CSSC[C@H](NC(=O)[C@@H](Cc2ccccc2)NC(=O)CN2CCN(CC(=O)O)CCN(CC(=O)NCCCC[C@@H](NC(=O)[C@@H](CNC(=O)C[N+](C)(C)Cc3ccc([Si](F)(C(C)(C)C)C(C)(C)C)cc3)NC(=O)[C@@H](CCC(=O)O)NC(=O)[C@@H](CCC(=O)O)NC(=O)[C@@H](CCC(=O)O)NC(=O)[C@]3(O)C[C@@H](O)[C@@H](O)[C@H](O)C3)C(=O)O)CCN(CC(=O)O)CC2)C(=O)N[C@@H](Cc2ccc(O)cc2)C(=O)N[C@H](Cc2c[nH]c3ccccc23)C(=O)N[C@@H](CCCCN)C(=O)N[C@@H]([C@@H](C)O)C(=O)N1)C(=O)O [[Ga]09, D-(−)-quinic acid-D-Glu-D-Glu-D-Glu-D-Dap(N-SiFAlin-N,N-Me2-Gly)-D-Lys(trans-[^natGa] DOTA-TATE)-OH, metal not drawn] | −2.28 ± 0.04 |
